Experimental findings from US8133911B2, “(R)-4-(heteroaryl) phenylethyl derivatives and pharmaceutical compositions containing them” (Dompe S.p.A, priority 2007, dated 2012) are described below.

The term inhibition denotes the drop in the measured response relative to a control, in per cent.

Molecules are shown by their SMILES. Like-named read-outs stand apart in the source and are kept apart here.

For this assay, the system named is PMNs C5a induced chemotaxis. Description: Inhibition of C5a-induced chemotaxis of human PMNs. It counts as cell-based. The following applies: 1 h, read-out: C5a (% inhibition at 10^−8 M). The procedure: The compounds prepared in Example 2 were evaluated in vitro for their ability to inhibit chemotaxis of polymorphonucleate leukocytes (hereinafter referred to as PMNs) and monocytes induced by the fractions of the complement C5a and C5a-desArg. For this purpose, to isolate the PMNs from heparinized human blood, taken from healthy adult volunteers, mononucleates were removed by means of sedimentation on dextran (according to the procedure disclosed by W. J. Ming et al., J. Immunol., 138, 1469, 1987) and red blood cells by a hypotonic solution. The cell vitality was calculated by exclusion with Trypan blue, whilst the ratio of the circulating polymorphonucleates was estimated on the cytocentrifugate after staining with Diff Quick.
Human recombinant fractions C5a and C5a-desArg (Sigma) were used as stimulating agents in the chemotaxis experiments, giving practically identical results.
The lyophilized C5a was dissolved in a volume of HBSS containing 0.2% bovin serum albumin BSA so thus to obtain a stock solution having a concentration of 10^−5 M to be diluted in HBSS to a concentration of 10^−9 M, for the chemotaxis assays.
In the chemotaxis experiments, the PMNs were incubated with the compounds of the invention of formula (I) for 15′ at 37° C. in an atmosphere containing 5% CO2. The chemotactic activity of the C5a was evaluated on human circulating polymorphonucleates (PMNs) resuspended in HBSS at a concentration of 1.5×10^6 PMNs per ml. During the chemotaxis assay (according to W. Falket et al., J. Immunol. Methods, 33, 239, 1980) PVP-free filters with a porosity of 5 μm and microchambers suitable for replication were used.
The compounds of Example 2 were evaluated at a concentration ranging between 10^−7 and 10^−10 M; for this purpose they were added, at the same concentration, both to the lower pores and the upper pores of the microchamber. The wells in the lower part contain the solution of C5a or the simple carrier, those in the upper part contain the suspension of PMNs.
Inhibition of C5a-induced chemotactic activity by the individual compounds was evaluated by incubating the microchamber for the chemotaxis for 60 min at 37° C. in an atmosphere containing 5% CO2.

[1] abbreviates: compound 10^−8 M, human PMNs, C5a 10^−9 M, 60 min at 37° C.

Take `C[C@H](c1ccc(Nc2nc(C(F)(F)F)cs2)cc1)c1nnn[nH]1` [Compound 1, N-{4-[(1R)-1-(1H-tetrazol-5-yl)ethyl]phenyl}-4-(trifluoromethyl)-1,3-thiazol-2-amine]: under setting [1], the inhibition at 0.01 µM is 60 ± 1%.

`Cc1csc(Nc2ccc([C@@H](C)c3nnn[nH]3)cc2)n1` [Compound 2, 4-methyl-N-{4-[(1R)-1-(1H-tetrazol-5-yl)ethyl]phenyl}-1,3-thiazol-2-amine]: under setting [1], the inhibition at 0.01 µM was determined as 45 ± 3%.

Turning to `C[C@H](c1ccc(Nc2nc(C(C)(C)C)cs2)cc1)c1nnn[nH]1` [Compound 3, 4-tert-butyl-N-{4-[(1R)-1-(1H-tetrazol-5-yl)ethyl]phenyl}-1,3-thiazol-2-amine], the inhibition at 0.01 µM under setting [1] was 42 ± 8%.

On to `C[C@H](c1ccc(Nc2nccs2)cc1)c1nnn[nH]1` [Compound 4, N-{4-[(1R)-1-(1H-tetrazol-5-yl)ethyl]phenyl}-1,3-thiazol-2-amine], for which the inhibition at 0.01 µM under setting [1] stood at 39 ± 3%.

Regarding `C[C@H](c1ccc(Nc2nc(C(F)(F)F)co2)cc1)c1nnn[nH]1` [Compound 5, N-{4-[(1R)-1-(1H-tetrazol-5-yl)ethyl]phenyl}-4-(trifluoromethyl)-1,3-oxazol-2-amine], the inhibition at 0.01 µM under setting [1] is 55 ± 1%.

Consider `Cc1coc(Nc2ccc([C@@H](C)c3nnn[nH]3)cc2)n1` [Compound 6, 4-methyl-N-{4-[(1R)-1-(1H-tetrazol-5-yl)ethyl]phenyl}-1,3-oxazol-2-amine], for which, under setting [1], the inhibition at 0.01 µM turned out to be 51 ± 7%.

As for `C[C@H](c1ccc(Nc2nc(C(F)(F)F)cs2)cc1)c1ccnn1O` [Compound 7, 5-[(1R)-1-(4-{[4-(trifluoromethyl)-1,3-thiazol-2-yl]amino}phenyl)ethyl]-1H-pyrazol-1-ol], under setting [1], the inhibition at 0.01 µM was 38 ± 6%.

On to `Cc1cnn(O)c1[C@H](C)c1ccc(Nc2nc(C(F)(F)F)cs2)cc1` [Compound 8, 4-methyl-5-[(1R)-1-(4-{[4-(trifluoromethyl)-1,3-thiazol-2-yl]amino}phenyl)ethyl]-1H-pyrazol-1-ol], for which, under setting [1], the inhibition at 0.01 µM was determined as 48 ± 5%.

Take `C[C@H](c1ccc(Nc2nc(C(F)(F)F)cs2)cc1)c1cnnn1O` [Compound 9, 5-[(1R)-1-(4-{[4-(trifluoromethyl)-1,3-thiazol-2-yl]amino}phenyl)ethyl]-1H-1,2,3-triazol-1-ol]: the inhibition at 0.01 µM under setting [1] was 44 ± 1%.

With `C[C@H](c1ccc(Nc2nc(C(F)(F)F)cs2)cc1)c1cc(O)no1` [Compound 10, 5-[(1R)-1-(4-{[4-(trifluoromethyl)-1,3-thiazol-2-yl]amino}phenyl)ethyl]isoxazol-3-ol], the inhibition at 0.01 µM under setting [1] was 56 ± 1%.

Regarding `Cc1c(O)noc1[C@H](C)c1ccc(Nc2nc(C(F)(F)F)cs2)cc1` [Compound 11, 4-methyl-5-[(1R)-1-(4-{[4-(trifluoromethyl)-1,3-thiazol-2-yl]amino}phenyl)ethyl]isoxazol-3-ol], where the note is “Homo sapiens”, the inhibition at 0.01 µM worked out at 45 ± 4%.

`C[C@H](c1ccc(Nc2nc(C(F)(F)F)cs2)cc1)c1cc(O)ns1` [Compound 12, 5-[(1R)-1-(4-{[4-(trifluoromethyl)-1,3-thiazol-2-yl]amino}phenyl)ethyl]isothiazol-3-ol]: the inhibition at 0.01 µM under setting [1] is 45 ± 3%.

On to `C[C@H](c1ccc(Nc2nc(C(F)(F)F)cs2)cc1)c1nonc1O` [Compound 13, 4-[(1R)-1-(4-{[4-(trifluoromethyl)-1,3-thiazol-2-yl]amino}phenyl)ethyl]-1,2,5-oxadiazol-3-ol], for which the inhibition at 0.01 µM under setting [1] was 51 ± 4%.

In the case of `C[C@H](c1ccc(Nc2nc(C(F)(F)F)cs2)cc1)c1nsnc1O` [Compound 14, 4-[(1R)-1-(4-{[4-(trifluoromethyl)-1,3-thiazol-2-yl]amino}phenyl)ethyl]-1,2,5-thiadiazol-3-ol], under setting [1], the inhibition at 0.01 µM was 60 ± 9%.

As to `C[C@H](c1ccc(Nc2nc(C(F)(F)F)cs2)cc1)c1ncnn1O` [Compound 15, 5-[(1R)-1-(4-{[4-(trifluoromethyl)-1,3-thiazol-2-yl]amino}phenyl)ethyl]-1H-1,2,4-triazol-1-ol], the inhibition at 0.01 µM under setting [1] was 43 ± 1%.
